According to US10543212B2, “Substituted amines for treating cardiac diseases” (Cardurion Pharmaceuticals, LLC, priority 2017, dated 2020):

target: T1, Full-length, GST-tagged, human CaMKIIδ (Homo sapiens, UniProt Q13557); test: CaMKIIδ binding assay (TR-FRET with BODIPY-labeled probe ligand); details: CaMKIIδ binding assay, results of Table 2
T1 construct: Full-Length, Glutathione-S-Transferase(GST)-Tagged, Human CaMKIIδ was purchased from Carna Biosciences; purchased Carna Biosciences 02-111
Procedure, shortened: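 Compounds were tested as 4-fold, eight-point series for 1 hr at room temperature, and IC50 was obtained by logistic fitting against a 3 μM parent-compound control. Signal came from displacement of a 300 nM BODIPY ligand from 0.5 nM GST-CaMKIIδ, detected via Tb-anti-GST in calmodulin/Ca2+ (pH 7.6).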

T1 sequence (Q13557 1-478 isoform Q13557-12): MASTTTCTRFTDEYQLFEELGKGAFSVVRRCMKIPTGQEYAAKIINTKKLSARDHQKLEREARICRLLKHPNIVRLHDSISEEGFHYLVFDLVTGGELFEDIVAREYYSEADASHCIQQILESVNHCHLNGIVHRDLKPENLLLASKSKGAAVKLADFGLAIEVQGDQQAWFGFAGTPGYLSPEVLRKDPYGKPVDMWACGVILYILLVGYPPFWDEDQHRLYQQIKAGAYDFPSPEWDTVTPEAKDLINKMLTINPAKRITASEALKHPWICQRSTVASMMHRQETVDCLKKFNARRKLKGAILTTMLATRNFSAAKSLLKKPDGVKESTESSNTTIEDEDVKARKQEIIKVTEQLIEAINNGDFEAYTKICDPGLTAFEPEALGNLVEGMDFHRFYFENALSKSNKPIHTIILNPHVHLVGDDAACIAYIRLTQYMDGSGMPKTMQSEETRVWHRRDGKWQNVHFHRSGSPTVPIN

Row | Compound | IC50
1 | COCCN1CCc2cc(OC)c(Nc3ncc(-c4ccc(Cl)c(O[C@@H](C)Cn5cnnn5)c4)cn3)cc2C1 [Example 518, (S)-N-(5-(3-((1-(1H-tetrazol-1-yl)propan-2-yl)oxy)-4-chlorophenyl)pyrimidin-2-yl)-6-methoxy-2-(2-methoxyethyl)-1,2,3,4-tetrahydroisoquinolin-7-amine] | < 10 nM
2 | CCN(C)CC(=O)N1CCc2cc(Nc3ncc(-c4ccc(Cl)c(O[C@@H](C)Cn5cnnn5)c4)cn3)c(OC)cc2C1 [Example 514, (S)-1-(6-((5-(3-((1-(1H-tetrazol-1-yl)propan-2-yl)oxy)-4-chlorophenyl)pyrimidin-2-yl)amino)-7-methoxy-3,4-dihydroisoquinolin-2(1H)-yl)-2-(ethyl(methyl)amino)ethan-1-one] | < 10 nM
3 | COc1cc(C2CCN(C3COC3)CC2)c(C)cc1Nc1ncc(-c2ccc(Cl)c(O[C@@H](C)Cn3cnnn3)c2)cn1 [Example 529, (S)-5-(3-((1-(1H-tetrazol-1-yl)propan-2-yl)oxy)-4-chlorophenyl)-N-(2-methoxy-5-methyl-4-(1-(oxetan-3-yl)piperidin-4-yl)phenyl)pyrimidin-2-amine] | < 10 nM
4 | COc1cc2c(cc1Nc1ncc(-c3ccc(Cl)c(O[C@@H](C)Cn4cnnn4)c3)cn1)CN(CC1COC1)CC2 [Example 499, (S)-N-(5-(3-((1-(1H-tetrazol-1-yl)propan-2-yl)oxy)-4-chlorophenyl)pyrimidin-2-yl)-6-methoxy-2-(oxetan-3-ylmethyl)-1,2,3,4-tetrahydroisoquinolin-7-amine] | < 10 nM
5 | C[C@@H](Cn1cnnn1)Oc1cc(-c2cnc(Nc3cn(C4CCN(CCC(C)(C)C)CC4)nc3C(F)(F)F)nc2)ccc1Cl [Example 547, (S)-5-(3-((1-(1H-tetrazol-1-yl)propan-2-yl)oxy)-4-chlorophenyl)-N-(1-(1-(3,3-dimethylbutyl)piperidin-4-yl)-3-(trifluoromethyl)-1H-pyrazol-4-yl)pyrimidin-2-amine] | < 10 nM
6 | C[C@@H](Cn1cnnn1)Oc1cc(-c2cnc(Nc3cc4c(cc3Cl)CCNCC4)nc2)ccc1C#N [Example 527, (S)-2-((1-(1H-tetrazol-1-yl)propan-2-yl)oxy)-4-(2-((8-chloro-2,3,4,5-tetrahydro-1H-benzo[d]azepin-7-yl)amino)pyrimidin-5-yl)benzonitrile] | < 10 nM
7 | COC1CCC(N2CCC(n3cc(Nc4ncc(-c5ccc(Cl)c(OC(C)Cn6cnnn6)c5)cn4)c(C(F)(F)F)n3)CC2)CC1 (single isomer, unassigned; more polar) [Example 556, (S)-5-(3-((1-(1H-tetrazol-1-yl)propan-2-yl)oxy)-4-chlorophenyl)-N-(1-(1-(cis or trans-4-methoxycyclohexyl)piperidin-4-yl)-3-(trifluoromethyl)-1H-pyrazol-4-yl)pyrimidin-2-amine, more polar] | < 10 nM

same assay, conditions: CaMKIIδ binding assay; activity class per Table 2

Row | Compound | IC50
8 | C[C@@H](Cn1cnnn1)Oc1cc(-c2cnc(Nc3cn([C@@H]4CCN(C5CCC5)C[C@H]4O)nc3C(F)(F)F)nc2)ccc1Cl (mixture of isomers) [Example 898, trans-4-(4-((5-(3-(((S)-1-(1H-tetrazol-1-yl)propan-2-yl)oxy)-4-chlorophenyl)pyrimidin-2-yl)amino)-3-(trifluoromethyl)-1H-pyrazol-1-yl)-1-cyclobutylpiperidin-3-ol] | < 10 nM
9 | C[C@@H](Cn1cnnn1)Oc1cc(-c2cnc(Nc3cn(C4CC5(C4)CN(C4COCCOC4)C5)nc3OCC(F)(F)F)nc2)ccc1Cl [Example 982, (S)—N-(1-(2-(1,4-dioxepan-6-yl)-2-azaspiro[3.3]heptan-6-yl)-3-(2,2,2-trifluoroethoxy)-1H-pyrazol-4-yl)-5-(3-((1-(1H-tetrazol-1-yl)propan-2-yl)oxy)-4-chlorophenyl)pyrimidin-2-amine] | < 10 nM
10 | C[C@@H](Cn1cnnn1)Oc1cc(-c2cnc(Nc3cn(C(C)(C)C(N)=O)nc3OCC(F)(F)F)nc2)ccc1Cl [Example 894, (S)-2-(4-((5-(3-((1-(1H-tetrazol-1-yl)propan-2-yl)oxy)-4-chlorophenyl)pyrimidin-2-yl)amino)-3-(2,2,2-trifluoroethoxy)-1H-pyrazol-1-yl)-2-methylpropanamide] | < 10 nM
11 | C[C@@H](Cn1cnnn1)Oc1cc(-c2cnc(Nc3cn(C[C@]4(O)CC[C@H](O)CC4)nc3OCC(F)(F)F)nc2)ccc1Cl [Example 906, trans-1-((4-((5-(3-(((S)-1-(1H-tetrazol-1-yl)propan-2-yl)oxy)-4-chlorophenyl)pyrimidin-2-yl)amino)-3-(2,2,2-trifluoroethoxy)-1H-pyrazol-1-yl)methyl)cyclohexane-1,4-diol] | < 10 nM
12 | CC(C)c1nn(C2CC3(C2)CN(C2COC2)C3)cc1Nc1ncc(-c2ccc(Cl)c(O[C@@H](C)Cn3cnnn3)c2)cn1 [Example 935, (S)-5-(3-((1-(1H-tetrazol-1-yl)propan-2-yl)oxy)-4-chlorophenyl)-N-(3-isopropyl-1-(2-(oxetan-3-yl)-2-azaspiro[3.3]heptan-6-yl)-1H-pyrazol-4-yl)pyrimidin-2-amine] | < 10 nM
13 | COc1ccc(Cn2cc(Nc3ncc(-c4ccc(Cl)c(O[C@@H](C)Cn5cnnn5)c4)cn3)c(OCC(F)(F)F)n2)cn1 [Example 926, (S)-5-(3-((1-(1H-tetrazol-1-yl)propan-2-yl)oxy)-4-chlorophenyl)-N-(1-((6-methoxypyridin-3-yl)methyl)-3-(2,2,2-trifluoroethoxy)-1H-pyrazol-4-yl)pyrimidin-2-amine] | < 10 nM

same assay, conditions: Table 2; CaMKIIδ binding assay, activity given as class A/B/C

Row | Compound | IC50
14 | C[C@@H](Cn1cnnn1)Oc1cc(-c2cnc(Nc3cn([C@H]4CC[C@H](N5CCOCC5)CC4)nc3OC3COC3)nc2)ccc1Cl [Example 821, 5-(3-(((S)-1-(1H-tetrazol-1-yl)propan-2-yl)oxy)-4-chlorophenyl)-N-(1-(trans-4-morpholinocyclohexyl)-3-(oxetan-3-yloxy)-1H-pyrazol-4-yl)pyrimidin-2-amine] | < 10 nM
15 | CC(=O)NC(C)(C)Cn1cc(Nc2ncc(-c3ccc(Cl)c(O[C@@H](C)Cn4cnnn4)c3)cn2)c(C(F)(F)F)n1 [Example 862, (S)-N-(1-(4-((5-(3-((1-(1H-tetrazol-1-yl)propan-2-yl)oxy)-4-chlorophenyl)pyrimidin-2-yl)amino)-3-(trifluoromethyl)-1H-pyrazol-1-yl)-2-methylpropan-2-yl)acetamide] | 10 to 100 nM
16 | C[C@@H](Cn1cnnn1)Oc1cc(-c2cnc(Nc3cn(CCNC(=O)OC(C)(C)C)nc3C(F)(F)F)nc2)ccc1Cl [Example 845, tert-butyl (S)-(2-(4-((5-(3-((1-(1H-tetrazol-1-yl)propan-2-yl)oxy)-4-chlorophenyl)pyrimidin-2-yl)amino)-3-(trifluoromethyl)-1H-pyrazol-1-yl)ethyl)carbamate] | 10 to 100 nM
17 | COc1ncc(N2CCN(C3CCOCC3)CC2)cc1Nc1ncc(-c2ccc(Cl)c(O[C@@H](C)Cn3cnnn3)c2)cn1 [Example 770, (S)-5-(3-((1-(1H-tetrazol-1-yl)propan-2-yl)oxy)-4-chlorophenyl)-N-(2-methoxy-5-(4-(tetrahydro-2H-pyran-4-yl)piperazin-1-yl)pyridin-3-yl)pyrimidin-2-amine] | < 10 nM
18 | C[C@@H](Cn1cnnn1)Oc1cc(-c2cnc(Nc3cn(C4CCNCC4)nc3C(F)F)nc2)ccc1Cl [Example 771, (S)-5-(3-((1-(1H-tetrazol-1-yl)propan-2-yl)oxy)-4-chlorophenyl)-N-(3-(difluoromethyl)-1-(piperidin-4-yl)-1H-pyrazol-4-yl)pyrimidin-2-amine] | < 10 nM
19 | C[C@@H](Cn1cnnn1)Oc1cc(-c2cnc(Nc3cn(C4CCCCC4O)nc3C(F)(F)F)nc2)ccc1Cl (stereo partly drawn) [Example 733, 2-(4-((5-(3-(((S)-1-(1H-tetrazol-1-yl)propan-2-yl)oxy)-4-chlorophenyl)pyrimidin-2-yl)amino)-3-(trifluoromethyl)-1H-pyrazol-1-yl)cyclohexan-1-ol] | < 10 nM
20 | C[C@@H](Cn1cnnn1)Oc1cc(-c2cnc(Nc3ccn(C)n3)nc2)ccc1Cl [Example 755, (S)-5-(3-((1-(1H-tetrazol-1-yl)propan-2-yl)oxy)-4-chlorophenyl)-N-(1-methyl-1H-pyrazol-3-yl)pyrimidin-2-amine] | 10 to 100 nM
21 | C[C@@H](Cn1cnnn1)Oc1cc(-c2cnc(Nc3cn(CC(O)CO)nc3C(F)(F)F)nc2)ccc1Cl (stereo partly drawn) [Example 736, 3-(4-((5-(3-(((S)-1-(1H-tetrazol-1-yl)propan-2-yl)oxy)-4-chlorophenyl)pyrimidin-2-yl)amino)-3-(trifluoromethyl)-1H-pyrazol-1-yl)propane-1,2-diol] | < 10 nM

same assay, conditions: Table 2; activity class for CaMKIIδ

Row | Compound | IC50
22 | C[C@@H](Cn1cnnn1)Oc1cc(-c2cnc(Nc3cn(C4CCNC4)nc3C(F)(F)F)nc2)ccc1Cl (stereo partly drawn) [Example 618, 5-(3-(((S)-1-(1H-tetrazol-1-yl)propan-2-yl)oxy)-4-chlorophenyl)-N-(1-(pyrrolidin-3-yl)-3-(trifluoromethyl)-1H-pyrazol-4-yl)pyrimidin-2-amine] | < 10 nM
23 | CCn1cc(Nc2ncc(-c3ccc(Cl)c(O[C@@H](C)Cn4cnnn4)c3)cn2)c(-c2ccccc2)n1 [Example 643, (S)-5-(3-((1-(1H-tetrazol-1-yl)propan-2-yl)oxy)-4-chlorophenyl)-N-(1-ethyl-3-phenyl-1H-pyrazol-4-yl)pyrimidin-2-amine] | 10 to 100 nM
24 | COc1ccc(C(=O)N2CCCNCC2)cc1Nc1ncc(-c2ccc(Cl)c(O[C@@H](C)Cn3cnnn3)c2)cn1 [Example 593, (S)-(3-((5-(3-((1-(1H-tetrazol-1-yl)propan-2-yl)oxy)-4-chlorophenyl)pyrimidin-2-yl)amino)-4-methoxyphenyl) (1,4-diazepan-1-yl)methanone] | < 10 nM
25 | COc1ccc(C(=O)N2CCN(C3COC3)CC2)cc1Nc1ncc(-c2ccc(Cl)c(O[C@@H](C)Cn3cnnn3)c2)cn1 [Example 589, (S)-(3-((5-(3-((1-(1H-tetrazol-1-yl)propan-2-yl)oxy)-4-chlorophenyl)pyrimidin-2-yl)amino)-4-methoxyphenyl) (4-(oxetan-3-yl)piperazin-1-yl)methanone] | 10 to 100 nM
